# PubChem BioAssay (NCI)
# Values joined by “and” are separate entries in the source; they are usually repeats but may differ in a detail not shown here. Equal entries are not always repeated.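 Tested at 5 concentrations; 48 h exposure; 96-well plates; endpoints linearly interpolated, else capped at highest concentration. TGI: concentration producing complete growth inhibition.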 Numbered stars: 1 amine (or outer) side, 2 acyl side, 3 side chain; on linkers, the order of the positions; unused ones are H or OH. Bridge positions count the residues as written; N and C are the ends. Square brackets hold non-standard residues; d marks the D form. Peptide text beside a SMILES is read from it. I, II: the chains in the order shown. Actinocin(1to9) = Cc1c2oc3c(C)ccc(C(=O)[*:2])c3nc-2c(C(=O)[*:1])c(N)c1=O; NMeV = CN[CH](C(=O)O)C(C)C; Sar = CNCC(=O)O
# Legend:
# Experiment in all cases: NCI tumour cell line growth inhibition, 48 h
# [1] = system: ACHN renal
# [2] = system: CCRF-CEM leukemia
# [3] = system: COLO 205 colon
# [4] = system: EKVX NSCLC
# [5] = system: HCT-116 colon
# [6] = system: HCT-15 colon
# [7] = system: KM12 colon
# [8] = system: M14 melanoma
# [9] = system: MALME-3M melanoma
# [10] = system: MDA-MB-231 breast
# [11] = system: NCI-H226 lung
# [12] = system: NCI-H460 lung
# [13] = system: OVCAR-8 ovarian
# [14] = system: SK-MEL-5 melanoma
# [15] = system: SN12C renal
# [16] = system: SR leukemia
# [17] = system: SW-620 colon
# [18] = system: TK-10 renal
# [19] = system: UACC-62 melanoma
SMILES,TGI [1],TGI [2],TGI [3],TGI [4],TGI [5],TGI [6],TGI [7],TGI [8],TGI [9],TGI [10],TGI [11],TGI [12],TGI [13],TGI [14],TGI [15],TGI [16],TGI [17],TGI [18],TGI [19]
Cn1c2c(c3c(=O)[nH]ncc31)CCCc1ccccc1-2,98.9 µM,> 100 µM,34.5 µM,> 100 µM,> 100 µM,> 100 µM,> 100 µM,> 100 µM,60.7 µM,> 100 µM,86 µM,67.7 µM,83.5 µM,30.5 µM,66.3 µM,51.8 µM,> 100 µM,> 100 µM,> 100 µM
CN1C(=O)C(O)C[C@@H]1c1ccc(F)cc1 (stereo not given in full),> 100 µM,> 100 µM,> 100 µM,> 100 µM,> 100 µM,> 100 µM,,> 100 µM,,> 100 µM,> 100 µM,,,> 100 µM,> 100 µM,> 100 µM,,> 100 µM,> 100 µM
CCO/N=C(/CC)c1ccc(Br)s1,> 100 µM,> 100 µM,> 100 µM,> 100 µM,> 100 µM,> 100 µM,> 100 µM,> 100 µM,> 100 µM,> 100 µM,> 100 µM,> 100 µM,> 100 µM,> 100 µM,> 100 µM,> 100 µM,> 100 µM,> 100 µM,> 100 µM
COC(=O)c1c(OC(C)=O)ccc2c1c1cc3ccccc3c(OC(C)=O)c1n2C,89.4 µM,> 100 µM,69.8 µM,> 100 µM,74 µM,> 100 µM,> 100 µM,> 100 µM,56.2 µM,> 100 µM,> 100 µM,> 100 µM,> 100 µM,31.2 µM,> 100 µM,> 100 µM,,92.5 µM,> 100 µM
Cc1ccc(C)c(C(=N)c2ccccc2Cc2ccccc2)c1,35.7 µM,,66.9 µM,56.8 µM,41.5 µM,> 100 µM,56.5 µM,> 100 µM,28 µM,64.2 µM,33.9 µM,33.2 µM,> 100 µM,30.5 µM,32.2 µM,41.7 µM,> 100 µM,> 100 µM,33.4 µM
CCCC(=O)Oc1cc(OC(=O)CCC)c2c(C)cc(=O)oc2c1,> 100 µM,> 100 µM,> 100 µM,> 100 µM,> 100 µM,> 100 µM,> 100 µM,> 100 µM,> 100 µM,> 100 µM,> 100 µM,,> 100 µM,> 100 µM,> 100 µM,76.9 µM,> 100 µM,> 100 µM,> 100 µM
COC(=O)/C=C/N1CC1,> 10 µM,> 10 µM,9.07 µM,> 10 µM,> 10 µM,> 10 µM,> 10 µM,> 10 µM,> 10 µM,> 10 µM,> 10 µM,> 10 µM,> 10 µM,> 10 µM,> 10 µM,> 10 µM,,> 10 µM,> 10 µM
CC(C)[Si](OC1=CCC[C@H]2NC(=O)[C@@H](Cc3ccc([N+](=O)[O-])cc3)[C@@]12C)(C(C)C)C(C)C,4.28 µM,8.19 µM,17 µM,18.7 µM,12.7 µM,15.6 µM,13.1 µM,26.2 µM,43.4 µM,28.1 µM,,10.5 µM,24.4 µM,5.58 µM,3.8 µM,8.02 µM,,23.9 µM,27.7 µM
N#C/C=C\c1ccc(-c2cc(C(F)(F)F)cc(C(F)(F)F)c2)o1,> 100 µM,> 100 µM,> 100 µM,> 100 µM,> 100 µM,,> 100 µM,> 100 µM,> 100 µM,> 100 µM,> 100 µM,> 100 µM,58.5 µM,43.1 µM,> 100 µM,40.7 µM,> 100 µM,,62.8 µM
O=C(O)CCCN=C(C(=NCCCC(=O)O)c1ccccc1)c1ccccc1,> 100 µM,,> 100 µM,> 100 µM,> 100 µM,> 100 µM,> 100 µM,> 100 µM,,> 100 µM,> 100 µM,> 100 µM,> 100 µM,,> 100 µM,> 100 µM,> 100 µM,> 100 µM,> 100 µM
COc1cc(OC)cc(Oc2nc3c(N)cc(C(F)(F)F)cc3nc2-c2ccccc2)c1,> 100 µM,> 100 µM,64.3 µM,> 100 µM,> 100 µM,55.9 µM,50.3 µM,> 100 µM,,98.7 µM,> 100 µM,> 100 µM,> 100 µM,> 100 µM,,75.7 µM,> 100 µM,> 100 µM,> 100 µM
O=Cc1ccc2[nH]c(=O)oc2c1,> 100 µM,> 100 µM,> 100 µM,> 100 µM,> 100 µM,> 100 µM,> 100 µM,> 100 µM,> 100 µM,> 100 µM,> 100 µM,> 100 µM,> 100 µM,,> 100 µM,> 100 µM,> 100 µM,> 100 µM,> 100 µM
Cc1cn(C2CC(O)C(Cn3nncc3Cn3ccc(=O)[nH]c3=O)O2)c(=O)[nH]c1=O (stereo not given),> 100 µM,> 100 µM,> 100 µM,> 100 µM,> 100 µM,> 100 µM,> 100 µM,> 100 µM,> 100 µM,> 100 µM,> 100 µM,,> 100 µM,> 100 µM,> 100 µM,> 100 µM,> 100 µM,> 100 µM,> 100 µM
CCCC(=O)OC1=C(c2ccccc2)Sc2ccccc2-n2cccc21,,> 10 µM,> 10 µM,> 10 µM,,> 10 µM,> 10 µM,> 10 µM,> 10 µM,> 10 µM,,,> 10 µM,> 10 µM,> 10 µM,> 10 µM,> 10 µM,> 10 µM,> 10 µM
"CCC(C)C1NC(=O)C(NC(=O)c2c3nc4c(C(=O)NC5C(=O)NC(C(C)C)C(=O)N6CCCC6C(=O)N(C)CC(=O)N(C)C(C(C)C)C(=O)OC5C)ccc(C)c4oc-3c(C)c(=O)c2N)C(C)OC(=O)C(C(C)C)N(C)C(=O)CN(C)C(=O)C2CCCN2C1=O (stereo not given) (I: TIP[Sar][NMeV] / II: TVP[Sar][NMeV]; ester I:1-I:C, II:1-II:C; linker I:N-II:N via Actinocin(1to9); configuration not given here)",0.0377 µM and 0.0261 µM,,0.0163 µM,0.179 µM and 0.0919 µM,4.8 µM,14.2 µM,0.191 µM,0.161 µM,0.028 µM,0.0753 µM and 0.261 µM,0.153 µM,,,0.111 µM,0.498 µM,0.404 µM,,17.9 µM,
N#Cc1c(Nc2ccccc2)[n+]([O-])c2ccc(Cl)cc2[n+]1[O-],68.5 µM,> 27.2 µM,8.03 µM,> 32.9 µM,33.1 µM,6.53 µM,> 100 µM,34.1 µM,26.9 µM,> 67 µM,> 45.2 µM,,10.7 µM,4.84 µM,> 100 µM,> 27.7 µM,> 100 µM,49.2 µM,31.5 µM
COc1cc(C2S/C(=C/c3ccccc3)C(=O)N2c2ccccn2)cc(OC)c1OC (stereo not given),29.8 µM,> 100 µM,> 78.8 µM,76.1 µM,20.6 µM,36.4 µM,29.4 µM,31.8 µM,27.5 µM,> 84.8 µM,> 96.4 µM,,31.2 µM,56.6 µM,33.6 µM,> 100 µM,64.3 µM,> 100 µM,29.8 µM
O=c1cc(-c2cccc(Br)c2)[nH]c2cc3c(cc12)OCO3,24.4 µM,> 100 µM,> 100 µM,,13.3 µM,> 77.6 µM,25.4 µM,24.5 µM,17.2 µM,23.1 µM,37 µM,24.8 µM,17.3 µM,9.73 µM,> 55.9 µM,> 100 µM,> 100 µM,28.6 µM,4.83 µM
CC(=O)c1cccc(NC(=O)/C(=N\NC(=S)NN)C2C(=O)Nc3ccccc3S2=O)c1 (stereo not given),> 100 µM,> 100 µM,,> 100 µM,> 100 µM,,> 100 µM,> 100 µM,> 100 µM,> 100 µM,> 100 µM,,> 100 µM,> 100 µM,> 100 µM,> 100 µM,> 100 µM,> 100 µM,> 100 µM
CCCNC(=O)c1cc(NC(=O)c2cc(NC(=O)CCS(=O)(=O)OC)cn2C)cn1C,> 100 µM,3.67 µM,22.7 µM,> 100 µM,> 69.8 µM,> 100 µM,> 61.5 µM,> 76.7 µM,24.6 µM,> 70.8 µM,,> 100 µM,30.3 µM,44.1 µM,29.7 µM,> 100 µM,> 100 µM,> 100 µM,48.7 µM
CC1OC(n2cnc3c(N)nc(Cl)nc32)C(C)(O)C1O (stereo not given),> 25 µM,> 25 µM,> 25 µM,> 25 µM,> 25 µM,> 25 µM,> 25 µM,> 25 µM,> 25 µM,> 25 µM,> 25 µM,,> 25 µM,> 25 µM,> 25 µM,> 25 µM,> 25 µM,> 25 µM,> 25 µM
N=c1oc2ccc(Cl)cc2cc1C(=O)NC1CCCCC1,> 100 µM,> 100 µM,> 100 µM,,> 100 µM,> 100 µM,> 100 µM,> 100 µM,,> 100 µM,> 100 µM,> 100 µM,> 100 µM,> 100 µM,> 100 µM,> 100 µM,> 100 µM,,> 100 µM
C=[N+](CNC(=O)CNC(=O)C(Cc1ccccc1)NC(=O)OC(C)(C)C)C(=O)CNC(=O)C(Cc1ccccc1)NC(=O)OC(C)(C)C (stereo not given),> 100 µM,> 100 µM,> 100 µM,> 100 µM,> 100 µM,> 100 µM,> 100 µM,> 100 µM,> 100 µM,> 100 µM,> 100 µM,> 100 µM,> 100 µM,> 100 µM,> 100 µM,> 100 µM,> 100 µM,,> 100 µM
CCOC(=O)C(C(=O)OCC)C(NC(=O)Nc1cc(C(F)(F)F)ccc1OC)(C(F)(F)F)C(F)(F)F,> 100 µM,70.9 µM,32.3 µM,> 100 µM,> 100 µM,> 100 µM,66.1 µM,45 µM,51.2 µM,39.7 µM,72.4 µM,> 100 µM,> 100 µM,39.6 µM,74.2 µM,,> 100 µM,> 100 µM,88.8 µM
O=C(CC(C(=O)c1cccs1)c1ccccc1)c1ccccc1O (stereo not given),> 44.8 µM,> 100 µM,> 100 µM,> 100 µM,> 100 µM,> 100 µM,> 100 µM,> 100 µM,,> 30 µM,> 100 µM,> 100 µM,> 100 µM,> 100 µM,> 100 µM,> 52.5 µM,> 100 µM,> 74.5 µM,> 44.6 µM
C1COCCOP2(N3CC3)=NP(N3CC3)(=NP(N3CC3)(N3CC3)=N2)OCCOCCO1 (stereo not given),> 100 µM,> 100 µM,> 100 µM,> 100 µM,> 100 µM,> 100 µM,> 100 µM,> 100 µM,> 100 µM,> 100 µM,> 100 µM,,> 100 µM,> 100 µM,> 100 µM,> 100 µM,> 100 µM,> 100 µM,> 100 µM
